This is an account of results in patent publication US20200123127A1, “REMOVAL OF SENESCENCE-ASSOCIATED MACROPHAGES” (EVERON BIOSCIENCES, INC., priority 2016, published 2020).

One may read the IC50 as the midpoint of a concentration-inhibition curve.

The subject of assay [1] is human neonatal dermal fibroblasts (NDF). Briefly: Resazurin viability assay, senescent vs proliferating/quiescent human neonatal dermal fibroblasts. The assay is classed as cell-based. The following applies: for IC50: Homo sapiens, Fibroblast.
For assay [2], the system named is A549 lung adenocarcinoma cells. In words: Anti-senescent cytotoxicity, senescent vs proliferating A549. It is filed as cell-based, Human. The following applies: for IC50: Homo sapiens.
Assay [3] has as its system mSQ primary adipose-derived mesenchymal stromal cells. In words: Anti-senescent cytotoxicity, senescent vs proliferating mSQ. It is filed as cell-based, Mouse. The settings on record: for IC50: Mus musculus.
Assay [4] relates to AdMSC primary adipose-derived mesenchymal stromal cells. In words: Anti-senescent cytotoxicity, senescent vs proliferating AdMSC. It is filed as cell-based, Human. The following applies: for IC50: Homo sapiens.
Assay [5] concerns RWPE-1 normal prostate epithelial cells. In words: dnPTEN-induced senescence model in RWPE-1 cells (SA-beta-Gal and methylene blue staining). The assay is classed as cell-based. The settings on record: 10 uM for 72 hours. The procedure:
FIG. 3. Activity of A1.1 and analog A1.12 in a model of dnPTEN-induced senescence in RWPE-1 normal prostate epithelial cells. A population of transduced RWPE-1 cells containing doxycycline-inducible dnPTEN was senesced via 1 ug/ml doxycycline for 7 days. Cells which bypass senescence continued to proliferate to form a confluent monolayer. The mixed population of senescent and proliferating cells was treated with A1.1 and A1.12 at 10 uM for 72 hours. SA-beta-Gal staining was used to monitor the amount of senescent cells of treatment groups compared to non-treated control. In addition, methylene blue was used to quantitate overall cell mass, which was comprised mostly of the non-senescent, proliferating cells. Treatment with the anti-senescent compounds led to a substantial decrease in SA-beta-Gal staining, while the amount of methylene blue staining was less affected.
Senescent cells are strongly associated with benign prostate hyperplasia (BPH) and the development of prostate cancer [Vital, P. et al. (2014) The Senescence-Associated Secretory Phenotype Promotes Benign Prostatic Hyperplasia. Am J Pathol, 184(3): 721-731; Burton, D. et al. (2013). Androgen Deprivation-Induced Senescence Promoted Outgrowth of Anderogen-Refractory Protstate Cancer Cells. PLOS One, 8(6):e68003]. […] We sought to evaluate the efficacy of our compounds in a model of RWPE-1 normal prostate epithelial cells transduced with a construct for inducible loss of PTEN function [doxycycline-inducible expression of a dominant-negative PTEN (dnPTEN) mutant]. In the presence of doxycycline, a fraction of the population of transduced cells became senescent, while cells bypassing senescence continued to grow until a confluent monolayer was formed.

Assay [6] concerns mLF primary lung fibroblasts. Briefly: Anti-senescent cytotoxicity, senescent vs proliferating mLF. It is filed as cell-based, Mouse. The following applies: for IC50: Mus musculus, Primary lung fibroblast. The method, then: For generation senescent human neonatal dermal fibroblasts (NDFs) and adult rat dermal fibroblasts (RDFs), cells are treated at ˜10 ug/ml bleomycin for 3 days (for bleomycin-induced senescence) or irradiated once at 20 Gy using a gamma irradiator (Cs source), followed by at least 7 day recovery in fresh medium for induction of senescence. Senescent and non-senescent (proliferating) cells for each cell line are plated into 384-w plate, followed by 72 hour exposure to a dose titration of compounds. Viability measurements are estimated using the resazurin viability assay. Using GraphPad Prism 5, the IC50 values are calculated from the non-linear regression of log-transformed compound concentrations versus dose-response normalized to background and non-treated controls.
Anti-senescent selectivity is observed in primary human dermal fibroblasts (NDFs) induced to senescence via genotoxic stress, oxidative stress and replicative stress. In addition, human, rat and mouse cells senesced via bleomycin and irradiation all show sensitivity towards A1.1 treatment compared to A1.1-treated naïve cell controls.

The test system of another assay is NF-κB. In words: NF-κB luciferase reporter in HT1080 cells. The following applies: HT1080 cells carrying IPTG-inducible p21. The assay is classed as cell-based.

Read-outs that look alike come from different tables or passages of the source.

Regarding `CCOC(=O)c1sc(SCc2ccccc2)c2c1CC(c1ccc(OC)cc1)C/C2=N\O` (centres unmarked) [Example A1.1], the “sensitivity of senescent vs acutely damaged or proliferating NDF cells” value in assay [1] (1.875-30 μM, 72 hours, bleomycin or 15 Gy senescent vs 4 Gy acutely damaged) is recorded as “greater sensitivity”. Moreover, the half-maximal inhibitory concentration (IC50) in assay [1] (NDF proliferating, read-out: Activity against Proliferating Cells (IC50; uM)) is 18.7 µM; in assay [1] (NDF, senescence induction: Bleomycin, read-out: Activity against Senescent Cells (IC50; uM)) it was 3.5 µM; in assay [1] (NDF, senescence induction: Busulfan, read-out: Activity against Senescent Cells (IC50; uM)) it was 3.6 µM; in assay [1] (NDF, senescence induction: Doxorubicin, read-out: Activity against Senescent Cells (IC50; uM)), 5.1 µM; in assay [1] (NDF, senescence induction: Etoposide, read-out: Activity against Senescent Cells (IC50; uM)), 3.8 µM; in assay [1] (NDF, senescence induction: H2O2, read-out: Activity against Senescent Cells (IC50; uM)) it was 3.2 µM. Besides, the IC50 in assay [1] (NDF, senescence induction: H-Ras, read-out: Activity against Senescent Cells (IC50; uM)) was found to be 8.9 µM; in assay [1] (NDF, senescence induction: Replicative (late passage), read-out: Activity against Senescent Cells (IC50; uM)) it was 10.5 µM; in assay [1] (light or radiation study, NDF, senescence induction: Irradiation, read-out: Activity against Senescent Cells (IC50; uM)), 6.5 µM; in assay [2] (light or radiation study, A549, senescence induction: Irradiation, read-out: Activity against Senescent Cells (IC50; uM)), 3.7 µM; in assay [2] (A549, senescence induction: Bleomycin, read-out: Activity against Senescent Cells (IC50; uM)), 4.5 µM; in assay [2] (A549 proliferating, read-out: Activity against Proliferating Cells (IC50; uM)), 16.5 µM. Besides, the IC50 in assay [3] (light or radiation study, mSQ, senescence induction: Irradiation, read-out: Activity against Senescent Cells (IC50; uM)) worked out at 9.9 µM; in assay [3] (mSQ proliferating, read-out: Activity against Proliferating Cells (IC50; uM)), 14.7 µM; in assay [3] (mSQ, senescence induction: Bleomycin, read-out: Activity against Senescent Cells (IC50; uM)), 6.7 µM; in assay [4] (AdMSC proliferating, read-out: Activity against Proliferating Cells (IC50; uM)), 12.6 µM; in assay [4] (AdMSC, senescence induction: Bleomycin, read-out: Activity against Senescent Cells (IC50; uM)) it was 5.6 µM; in assay [6] (light or radiation study, mLF, senescence induction: Irradiation, read-out: Activity against Senescent Cells (IC50; uM)), 4 µM. Besides, the IC50 in assay [6] (mLF proliferating, read-out: Activity against Proliferating Cells (IC50; uM)) is 10.6 µM; in assay [6] (mLF, senescence induction: Bleomycin, read-out: Activity against Senescent Cells (IC50; uM)), 7.1 µM. Further, the “Selectivity (Prolif/Sen)” value in assay [1] (NDF, Busulfan) stood at 5.3; in assay [1] (NDF, Doxorubicin), 3.7; in assay [1] (NDF, Etoposide), 4.9; in assay [1] (NDF, H2O2), 5.9; in assay [1] (NDF, H-Ras) it was 2.1; in assay [1] (NDF, Replicative (late passage)) it was 1.8. Besides, the “Selectivity (Prolif/Sen)” value in assay [2] (A549, Bleomycin) is 3.7; in assay [2] (A549, Irradiation) it was 4.5; in assay [3] (mSQ, Bleomycin), 2.2; in assay [3] (mSQ, Irradiation), 1.5; in assay [4] (AdMSC, Bleomycin), 2.3; in assay [6] (mLF, Bleomycin), 1.5. Further, the “Selectivity (Prolif/Sen)” value in assay [6] (mLF, Irradiation) came out at 2.7. Besides, the “number of viable senescent NDF cells” value in assay [1] (concentrations as low as 2.5 μM, doxorubicin-, bleomycin- and gamma-irradiation-induced senescence, 72 hours) is on record as “significantly reduced”. Moreover, in assay [5], the “proliferating cells / overall cell mass (methylene blue staining)” value was “inhibit growth of proliferating cells”. The “senescent cells (number of SA-β-Gal-positive cells)” value in assay [5] (dnPTEN-induced senescence) is recorded as “selective elimination of senescent cells”.

Regarding `O=C(NCCCc1cn[nH]c1)c1ccc(-c2ccncc2)c(C#Cc2ccc(F)cc2)c1` [OT-82], the “basal and inducible activity of NF-κB” value in the assay on NF-κB is “inhibits both basal and inducible activity”.
